pIC50: −log10 of the molar value. Where a name gives a salt, the structure may show the parent alone. Read-outs that look alike come from different tables or passages of the source.
Experiments:
[1] = test system: Phosphorylation of ERK1/2 in AsPC-1 cells; experiment: Phospho-ERK1/2 MSD Assay; format: cell-based, human; conditions: read-out: 2 h p-ERK (AsPC-1 cells), IC50
Method in brief: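 Read-out: MSD electrochemiluminescent detection of phosphorylated ERK1/2 in whole-cell lysates, fitted to a 4-parameter logistic curve for IC50. Prior to lysis, AsPC-1 cells (25,000 per well) received a 2 h compound dose-response at 37 °C.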

[2] = molecular target: His-tagged KRAS G12D protein (Homo sapiens (Human), UniProt P01116, G12D); experiment: KRAS G12D TR-FRET Assay; format: binding; conditions: read-out: KRAS G12D Binding IC50
His-tagged KRAS G12D protein, sequence (P01116 other isoform, or with tags, fused parts or gaps G12D): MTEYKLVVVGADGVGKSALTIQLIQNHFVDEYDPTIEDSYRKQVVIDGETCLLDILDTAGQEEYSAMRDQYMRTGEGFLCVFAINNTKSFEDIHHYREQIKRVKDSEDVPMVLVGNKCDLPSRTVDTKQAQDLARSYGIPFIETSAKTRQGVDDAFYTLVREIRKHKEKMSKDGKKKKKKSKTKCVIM
Method in brief: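 Each incubation ran at room temperature: enzyme with compound for 30 minutes, peptide for one hour, and detection reagents (0.4 nM europium anti-6×His, 5 nM streptavidin-d2) for one hour more. Protein and peptide stocks were each diluted to 20 nM before addition.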

[3] = molecular target: GDP-bound KRAS protein (aa 1-169), containing both G12D and C118A amino acid substitutions (Homo sapiens (Human), UniProt P01116, C118A/G12D); experiment: KRAS G12D Coupled Nucleotide Exchange Assay; format: biochemical; conditions: read-out: KRAS G12D Coupled Exchange IC50
GDP-bound KRAS protein (aa 1-169), containing both G12D and C118A amino acid substitutions, sequence (P01116 other isoform, or with tags, fused parts or gaps G12D/C118A): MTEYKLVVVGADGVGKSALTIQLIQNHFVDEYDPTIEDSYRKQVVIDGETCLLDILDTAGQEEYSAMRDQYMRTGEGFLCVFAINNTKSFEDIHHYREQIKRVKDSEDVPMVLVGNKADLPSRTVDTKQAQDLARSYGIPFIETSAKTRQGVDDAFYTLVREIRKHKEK

AsPC-1 cells = experiment: AsPC-1 CTG Assay (CellTiter-Glo cell viability); format: cell-based, human; conditions: Homo sapiens, ASPC1, 72 h, AsPC-1, 72 h; first value of the cell; read-out: G12D/C/V Cell Proliferation CTG (72 h) AsPC-1
Method in brief: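 IC50 values derive from 4-parameter logistic fits of CellTiter-Glo luminescence, expressed relative to DMSO. Compound dilution series were applied to overnight-seeded AsPC-1 or SW620 cells (RPMI 1640, 10% FBS) for 72 h at 37 °C, 5% CO2.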

MIA PaCa-2 cells = experiment: MIA PaCa-2 CTG Assay (CellTiter-Glo cell viability); format: cell-based, human; conditions: Homo sapiens; Mia PaCa-2, 72 h; second value of the cell; read-out: G12D/C/V Cell Proliferation CTG (72 h) Mia PaCa-2
Method in brief: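 IC50 values come from a 4-parameter logistic fit of CellTiter-Glo luminescence, normalized to DMSO control, after 72 h compound exposure at 37° C, 5% CO2. Cells grew in RPMI 1640 plus 10% FBS and were seeded at 1.67E+04 cells/mL one night before dosing.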

| pIC50 ([1]; Homo sapiens, ASPC1, 2 h) | pIC50 [2] | pIC50 [3] | pIC50 (AsPC-1 cells) | pIC50 (MIA PaCa-2 cells) | pIC50 ([1]; 2 h) | Compound |
| --- | --- | --- | --- | --- | --- | --- |
| 8.10 | 8.30 | 8.52 | 6.60 | 7.00 | – | O=C1OC/C=C\c2c(Cl)cc3[nH]ncc3c2-c2ncc3c(nc(OC[C@@]45CCCN4C[C@H](F)C5)nc3c2F)N2CCC[C@H](C2)O1 (single isomer, unassigned) [Example 122] |
| 8.60 | 8.40 | 9.00 | 7.38 | 7.77 | – | O=C1OCCCc2c(Cl)cc3[nH]ncc3c2-c2ncc3c(nc(OC[C@@]45CCCN4C[C@H](F)C5)nc3c2F)N2CCCC[C@](CF)(C2)O1 [Example 340, (26R)-18-chloro-32-fluoro-26-(fluoromethyl)-4-(((2R,7aS)-2-fluorotetrahydro-1H-pyrrolo[1,2-a]pyrrol-7a(5H)-yl)methoxy)-23,25-dioxa-1,3,5,9,14,15-hexaazahexacyclo[24.4.1.1~6,10~.0~2,7~.0~11,19~.0~12,16~]dotriaconta-2,4,6,8,10(32),11,13,16,18-nonaen-24-one] |
| 8.17 | 8.52 | 9.00 | 6.85 | 7.96 | – | C[C@@]12COCCN(C1)c1nc(OC[C@@]34CCCN3C[C@H](F)C4)nc3c(F)c(ncc13)-c1c3c(cc4[nH]ncc14)CC[C@H]3CCOC(=O)O2 [Example 365, (16S,22S)-34-fluoro-8-(((2R,7aS)-2-fluorotetrahydro-1H-pyrrolo[1,2-a]pyrrol-7a(5H)-yl)methoxy)-16-methyl-14,17,19-trioxa-3,7,9,11,28,29-hexaazaheptacyclo[20.9.1.1~2,6~.1~11,16~.0~5,10~.0~25,32~.0~27,31~]tetratriaconta-1(31),2(34),3,5,7,9,25(32),26,29-nonaen-18-one] |
| 7.08 | 8.40 | 8.70 | 6.24 | 6.80 | – | C[C@@]12CCN(C1)c1nc(OC[C@@]34CCCN3C[C@H](F)C4)nc3c(F)c(ncc13)-c1cc(O)cc3ccc(F)c(c13)CCCC(=O)N2 [Example 10, (14R)-21,30-Difluoro-8-(((2R,7aS)-2-fluorotetrahydro-1H-pyrrolo[1,2-a]pyrrol-7a(5H)-yl)methoxy)-26-hydroxy-14-methyl-3,7,9,11,15-pentaazahexacyclo[18.7.1.1˜2,6˜.1˜11,14˜.0˜5,10˜.0˜24,28˜]triaconta-1(27),2(30),3,5,7,9,20,22,24(28),25-decaen-16-one 2,2,2-trifluoroacetate salt] |
| 7.75 | 8.40 | 8.52 | 7.21 | 6.87 | – | CN(C)CC1(COc2nc3c4cc(F)c(c(F)c4n2)-c2c(c(Cl)cc4[nH]ncc24)CCCOC(=O)O[C@@H]2COCCN3C2)CC1 [Example 305, p-(26S)-18-chloro-4-((1-((dimethylamino)methyl)cyclopropyl)methoxy)-9,32-difluoro-23,25,28-trioxa-1,3,5,14,15-pentaazahexacyclo[24.4.1.1~6,10~.0~2,7~.0~11,19~.0~12,16~]dotriaconta-2,4,6,8,10(32),11,13,16,18-nonaen-24-one] |
| 8.40 | 8.70 | 9.00 | 7.30 | 7.70 | – | O=C1CCCCc2c(Cl)cc3[nH]ncc3c2-c2ncc3c(nc(OC[C@@]45CCCN4C[C@H](F)C5)nc3c2F)N2CCOC[C@H](C2)O1 [Example 84, (26S)-18-chloro-32-fluoro-4-(((2R,7aS)-2-fluorotetrahydro-1H-pyrrolo[1,2-a]pyrrol-7a(5H)-yl)methoxy)-25,28-dioxa-1,3,5,9,14,15-hexaazahexacyclo[24.4.1.1~6,10~.0~2,7~.0~11,19~.0~12,16~]dotriaconta-2,4,6,8,10(32),11,13,16,18-nonaen-24-one] |
| 9.40 | 8.52 | 9.00 | 8.15 | 8.30 | – | O=C1OCCc2c(F)ccc3cc(O)cc(c23)-c2ncc3c(nc(OC[C@@]45CCCN4C[C@H](F)C5)nc3c2F)N2CCOC[C@H](C2)O1 [Example 361, (16S)-23,32-difluoro-8-(((2R,7aS)-2-fluorotetrahydro-1H-pyrrolo[1,2-a]pyrrol-7a(5H)-yl)methoxy)-28-hydroxy-14,17,19-trioxa-3,7,9,11-tetraazahexacyclo[20.7.1.1~2,6~.1~11,16~.0~5,10~.0~26,30~]dotriaconta-1(30),2(32),3,5,7,9,22,24,26,28-decaen-18-one] |
| 8.10 | 8.30 | 8.70 | 6.98 | 7.05 | – | C[C@@]12CCCCN(C1)c1nc(OC[C@@]34CCCN3C[C@H](F)C4)nc3c(F)c(ncc13)-c1c(c(Cl)cc3[nH]ncc13)CCC[C@H](F)C(=O)N2 (mixture of isomers) [Example 281, (23RS,26R)-18-chloro-23,32-difluoro-4-(((2R,7aS)-2-fluorotetrahydro-1H-pyrrolo[1,2-a]pyrrol-7a(5H)-yl)methoxy)-26-methyl-1,3,5,9,14,15,25-heptaazahexacyclo[24.4.1.1~6,10~.0~2,7~.0~11,19~.0~12,16~]dotriaconta-2,4,6,8,10(32),11,13,16,18-nonaen-24-one] |
| 7.23 | 8.22 | 8.52 | 6.09 | 7.19 | – | O=C1OCCc2c(Cl)cc3[nH]ncc3c2-c2ncc3c(nc(OC[C@@]45CCCN4C[C@H](F)C5)nc3c2F)N2CCOCC(CO1)C2 (stereo partly shown) [Example 220] |
| 6.93 | 8.00 | 8.52 | 6.34 | 6.46 | – | O=C1OCCCc2c(Cl)cc3[nH]ncc3c2-c2ncc3c(nc(OC[C@@]45CCCN4C[C@@H](F)C5)nc3c2F)N2CCOC[C@H](C2)O1 [Example 360, (26S)-18-chloro-32-fluoro-4-(((25,7aS)-2-fluorotetrahydro-1H-pyrrolo[1,2-a]pyrrol-7a(5H)-yl)methoxy)-23,25,28-trioxa-1,3,5,9,14,15-hexaazahexacyclo[24.4.1.1~6,10~.0~2,7~.0~11,19~.0~12,16~]dotriaconta-2,4,6(32),7,9,11,13,16,18-nonaen-24-one] |
| 7.38 | 8.15 | 8.70 | 6.57 | 7.46 | – | CN1CCC[C@H]1COc1nc2c3cnc(c(F)c3n1)-c1c(c(Cl)cc3[nH]ncc13)CCCOC(=O)O[C@]1(CF)COCCN2C1 [Example 338, (26S)-18-chloro-32-fluoro-26-(fluoromethyl)-4-(((2S)-1-methyl-2-pyrrolidinyl)methoxy)-23,25,28-trioxa-1,3,5,9,14,15-hexaazahexacyclo[24.4.1.1~6,10~.0~2,7~.0~11,19~.0~12,16~]dotriaconta-2,4,6,8,10(32),11,13,16,18-nonaen-24-one] |
| 8.70 | 8.70 | 9.00 | 7.40 | 8.00 | – | O=C1CCCCc2c(Cl)cc3[nH]ncc3c2-c2ncc3c(nc(OC[C@@]45CCCN4C[C@H](F)C5)nc3c2F)N2CCCC[C@H](C2)O1 [Example 82, (26R)-18-chloro-32-fluoro-4-(((2R,7aS)-2-fluorotetrahydro-1H-pyrrolo[1,2-a]pyrrol-7a(5H)-yl)methoxy)-25-oxa-1,3,5,9,14,15-hexaazahexacyclo[24.4.1.1~6,10~.0~2,7~.0~11,19~.0~12,16~]dotriaconta-2,4,6,8,10(32),11,13,16,18-nonaen-24-one] |
| – | 8.40 | 8.52 | 6.23 | 6.38 | 7.14 | Cc1cc2[nH]ncc2c2c1CCCC(F)C(=O)N[C@@H]1CCCCN(C1)c1nc(OC[C@@]34CCCN3C[C@H](F)C4)nc3c(F)c-2ncc13 (single isomer, unassigned) [Example 160] |
| 7.77 | 8.40 | 8.70 | 6.85 | 7.30 | – | Cc1cc2[nH]ncc2c2c1CCCOC(=O)O[C@@H]1CCCCN(C1)c1nc(OC[C@@]34CCCN3C[C@H](F)C4)nc3c(F)c-2ncc13 [Example 98, (26R)-32-fluoro-4-(((2R,7aS)-2-fluorotetrahydro-1H-pyrrolo[1,2-a]pyrrol-7a(5H)-yl)methoxy)-18-methyl-23,25-dioxa-1,3,5,9,14,15-hexaazahexacyclo[24.4.1.1~6,10~.0~2,7~.0~11,19~.0~12,16~]dotriaconta-2,4,6,8,10(32),11,13,16,18-nonaen-24-one] |

Source: patent US20240294551A1 (AMGEN INC., priority 2022, published 2024)
